Data on one compound can be found in paper PMC9696254, “Discovery of p-Terphenyl Metabolites as Potential Phosphodiesterase PDE4D Inhibitors from the Coral-Associated Fungus Aspergillus sp. ITBBc1” (Marine Drugs, 2022).

The target in the test is PDE4D (Homo sapiens, UniProt Q08499). The test is described as follows: in vitro PDE4D inhibition assay, liquid scintillation counting, three independent experiments. It counts as biochemical.
PDE4D, sequence (Q08499 whole entry): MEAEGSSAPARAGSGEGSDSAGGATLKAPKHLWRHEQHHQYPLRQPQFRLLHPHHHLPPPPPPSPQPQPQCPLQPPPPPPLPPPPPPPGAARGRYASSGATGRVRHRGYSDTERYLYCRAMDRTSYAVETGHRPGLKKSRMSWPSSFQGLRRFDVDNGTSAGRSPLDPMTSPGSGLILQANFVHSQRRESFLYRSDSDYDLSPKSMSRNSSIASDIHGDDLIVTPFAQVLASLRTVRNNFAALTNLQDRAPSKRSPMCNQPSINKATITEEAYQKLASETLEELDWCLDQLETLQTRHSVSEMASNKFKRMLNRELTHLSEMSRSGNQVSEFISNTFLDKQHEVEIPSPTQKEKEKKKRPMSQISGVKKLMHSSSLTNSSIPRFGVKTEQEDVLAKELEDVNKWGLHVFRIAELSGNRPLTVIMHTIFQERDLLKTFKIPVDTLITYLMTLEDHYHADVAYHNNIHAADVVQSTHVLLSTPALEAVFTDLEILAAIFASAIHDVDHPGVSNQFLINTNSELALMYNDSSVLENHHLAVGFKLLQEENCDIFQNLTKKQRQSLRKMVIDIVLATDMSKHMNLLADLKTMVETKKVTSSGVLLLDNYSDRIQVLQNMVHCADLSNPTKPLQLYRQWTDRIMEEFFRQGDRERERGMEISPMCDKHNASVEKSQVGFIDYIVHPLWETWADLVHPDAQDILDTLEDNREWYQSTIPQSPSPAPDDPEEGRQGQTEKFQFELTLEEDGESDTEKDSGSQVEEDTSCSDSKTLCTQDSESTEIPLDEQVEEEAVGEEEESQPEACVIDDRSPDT

For `COc1cc(-c2ccccc2)c(OC)c(O)c1-c1ccc2c(c1)C=CC(C)(C)O2` [compound 3, Sanshamycin C], the IC50 (as a rule, the concentration needed to halve the response being measured) was determined as 5.54 ± 0.24 µM.
